Experimental data published in ChEMBL document CHEMBL4330071 (Eur J Med Chem, 2019).

Assays:
[1] = target: T1, Macrophage colony-stimulating factor 1 receptor (Homo sapiens, UniProt P07333); assay: Inhibition of human FMS assessed as residual activity at 10 uM using poly[Glu:Tyr] (4:1) as substrate preincubated for 20 mins followed by [gamma-33P]-ATP addition and measured after 120 mins by Hotspot assay relative to control
[2] = target: T2, ALK tyrosine kinase receptor (Homo sapiens, UniProt Q9UM73); assay: Inhibition of human ALK assessed as residual activity at 10 uM using poly[Glu:Tyr] (4:1) as substrate preincubated for 20 mins followed by [gamma-33P]-ATP addition and measured after 120 mins by Hotspot assay relative to control
[3] = target: Serine/threonine-protein kinase Nek2 (Homo sapiens) (UniProt P51955); assay: Inhibition of human NEK2 assessed as residual activity at 10 uM using MBP as substrate preincubated for 20 mins followed by [gamma-33P]-ATP addition and measured after 120 mins by Hotspot assay relative to control
[4] = Half life in human liver microsomes at 1 uM after 5 to 60 mins in presence of NADPH by LC-MS/MS analysis; assay type: ADME, Microsome
[5] = tested on: MV4-11; assay: Induction of apoptosis in human MV4-11 cells assessed as necrotic cells at 0.1 uM after 24 hrs by Annexin V-FITC/propidium iodide staining based flow cytometric analysis (reference value: 0%); assay type: functional
[6] = tested on: HL-60; assay: Growth inhibition of human HL60 cells harboring WT FLT3 at 10 uM after 72 hrs by CellTiter-Glo assay relative to control; assay type: functional; settings: HL-60, 72 h, read-out: GI
[7] = target: Cyclin-dependent kinase 4/cyclin D1 (Homo sapiens, UniProt P11802); assay: Inhibition of human CDK4/cyclin-D1 using RB protein as substrate preincubated for 20 mins followed by [gamma-33P]-ATP addition and measured after 120 mins by Hotspot assay; assay type: protein-complex assay
[8] = Half life in rat liver microsomes at 1 uM after 5 to 60 mins in presence of NADPH by LC-MS/MS analysis; assay type: ADME, Microsome
[9] = target: T2, ALK tyrosine kinase receptor; assay: Inhibition of human ALK using poly[Glu:Tyr] (4:1) as substrate preincubated for 20 mins followed by [gamma-33P]-ATP addition and measured after 120 mins by Hotspot assay
[10] = target: CDC7/DBF4 (Cell division cycle 7-related protein kinase/Activator of S phase kinase) (Homo sapiens) (UniProt Q9UBU7+O00311); assay: Inhibition of human CDC7/DBF4 assessed as residual activity at 10 uM using KTFCGTPEYLAPEVRREPRILSEEEQEMFRDFDYIADWC as substrate preincubated for 20 mins followed by [gamma-33P]-ATP addition and measured after 120 mins by Hotspot assay relative to control; assay type: protein-complex assay
[11] = tested on: MV4-11; assay: Induction of apoptosis in human MV4-11 cells assessed as early apoptotic cells at 0.05 uM after 24 hrs by Annexin V-FITC/propidium iodide staining based flow cytometric analysis (reference value: 3.39%); assay type: functional
[12] = Intrinsic clearance in human liver microsomes assessed per mg protein at 1 uM after 5 to 60 mins in presence of NADPH by LC-MS/MS analysis; assay type: ADME, Microsome; settings: read-out: CLH
[13] = target: T3, Tyrosine-protein kinase ABL1 (Homo sapiens, UniProt P00519, F317L); assay: Binding affinity to human non-phosphorylated ABL1 F317L mutant (S229 to K512 residues) expressed in mammalian expression system after 60 mins by Kinomescan method
[14] = target: Tyrosine-protein kinase ABL1 (Homo sapiens, UniProt P00519); assay: Binding affinity to wild-type human non-phosphorylated ABL1 (S229 to K512 residues) expressed in mammalian expression system after 60 mins by Kinomescan method
[15] = target: T1, Macrophage colony-stimulating factor 1 receptor; assay: Binding affinity to wild-type human partial length autoinhibited CSF1R (Y538 to S939 residues) expressed in mammalian expression system after 60 mins by Kinomescan method
[16] = target: Proto-oncogene tyrosine-protein kinase Src (Homo sapiens, UniProt P12931); assay: Inhibition of human c-SRC assessed as residual activity at 10 uM using poly[Glu:Tyr] (4:1) as substrate preincubated for 20 mins followed by [gamma-33P]-ATP addition and measured after 120 mins by Hotspot assay relative to control
[17] = tested on: MV4-11; assay: Induction of apoptosis in human MV4-11 cells assessed as late apoptotic cells at 0.1 uM after 24 hrs by Annexin V-FITC/propidium iodide staining based flow cytometric analysis (reference value: 1.42%); assay type: functional
[18] = target: Serine/threonine-protein kinase Chk1 (Homo sapiens, UniProt O14757); assay: Inhibition of human CHK1 using KKKVSRSGLYRSPSMPENLNRPR as substrate preincubated for 20 mins followed by [gamma-33P]-ATP addition and measured after 120 mins by Hotspot assay
[19] = target: T3, Tyrosine-protein kinase ABL1; assay: Binding affinity to human phosphorylated ABL1 F317L mutant (S229 to K512 residues) expressed in mammalian expression system after 60 mins by Kinomescan method
[20] = target: CDK1/Cyclin A (Homo sapiens) (UniProt P06493+P20248); assay: Inhibition of human CDK1/Cyclin-A assessed as residual activity at 10 uM using Histone H1 as substrate preincubated for 20 mins followed by [gamma-33P]-ATP addition and measured after 120 mins by Hotspot assay relative to control; assay type: protein-complex assay
[21] = target: Aurora kinase A (Homo sapiens) (UniProt O14965); assay: Inhibition of human Aurora A assessed as residual activity at 10 uM using [H-LRRASLG] as substrate preincubated for 20 mins followed by [gamma-33P]-ATP addition and measured after 120 mins by Hotspot assay relative to control
[22] = target: Inhibitor of nuclear factor kappa-B kinase subunit alpha (Homo sapiens) (UniProt O15111); assay: Inhibition of human IKKalpha assessed as residual activity at 10 uM using KKKKERLLDDRHDSGLDSMKDEE as substrate preincubated for 20 mins followed by [gamma-33P]-ATP addition and measured after 120 mins by Hotspot assay relative to control
[23] = tested on: PBMC; assay: Cytotoxicity against human PBMC at 1 uM after 72 hrs by MTT assay; assay type: cell-based
[24] = target: Tyrosine-protein kinase JAK2 (Homo sapiens) (UniProt O60674); assay: Inhibition of human JAK2 assessed as residual activity at 10 uM using poly[Glu:Tyr] (4:1) as substrate preincubated for 20 mins followed by [gamma-33P]-ATP addition and measured after 120 mins by Hotspot assay relative to control
[25] = target: Platelet-derived growth factor receptor alpha (Homo sapiens, UniProt P16234); assay: Inhibition of human PDGFRalpha assessed as residual activity at 10 uM using poly[Glu:Tyr] (4:1) as substrate preincubated for 20 mins followed by [gamma-33P]-ATP addition and measured after 120 mins by Hotspot assay relative to control
[26] = tested on: K562; assay: Growth inhibition of FLT3 null human K562 cells at 10 uM after 72 hrs by CellTiter-Glo assay relative to control; assay type: functional; settings: K562, 72 h, read-out: GI

Sequence of Cyclin-dependent kinase 4/cyclin D1 (P11802 whole entry): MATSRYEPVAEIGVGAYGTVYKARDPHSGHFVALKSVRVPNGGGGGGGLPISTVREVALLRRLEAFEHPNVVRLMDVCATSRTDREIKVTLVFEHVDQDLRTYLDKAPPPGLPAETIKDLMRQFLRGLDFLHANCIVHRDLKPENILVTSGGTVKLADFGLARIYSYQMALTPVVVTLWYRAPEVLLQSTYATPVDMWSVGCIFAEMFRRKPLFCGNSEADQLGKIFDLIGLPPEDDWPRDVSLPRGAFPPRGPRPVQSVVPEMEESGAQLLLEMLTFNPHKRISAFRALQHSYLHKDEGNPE
Sequence of Cyclin-dependent kinase 4/cyclin D1 (P24385 whole entry, further chain): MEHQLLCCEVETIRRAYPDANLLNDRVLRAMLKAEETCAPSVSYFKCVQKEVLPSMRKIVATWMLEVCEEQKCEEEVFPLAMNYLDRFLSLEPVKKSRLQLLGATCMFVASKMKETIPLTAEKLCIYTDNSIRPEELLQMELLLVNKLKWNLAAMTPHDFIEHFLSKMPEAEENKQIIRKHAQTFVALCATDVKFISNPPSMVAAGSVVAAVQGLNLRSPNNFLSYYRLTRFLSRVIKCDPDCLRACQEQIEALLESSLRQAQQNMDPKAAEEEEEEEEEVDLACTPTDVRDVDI
T3 sequence (P00519 whole entry F317L, the tested form may be a part): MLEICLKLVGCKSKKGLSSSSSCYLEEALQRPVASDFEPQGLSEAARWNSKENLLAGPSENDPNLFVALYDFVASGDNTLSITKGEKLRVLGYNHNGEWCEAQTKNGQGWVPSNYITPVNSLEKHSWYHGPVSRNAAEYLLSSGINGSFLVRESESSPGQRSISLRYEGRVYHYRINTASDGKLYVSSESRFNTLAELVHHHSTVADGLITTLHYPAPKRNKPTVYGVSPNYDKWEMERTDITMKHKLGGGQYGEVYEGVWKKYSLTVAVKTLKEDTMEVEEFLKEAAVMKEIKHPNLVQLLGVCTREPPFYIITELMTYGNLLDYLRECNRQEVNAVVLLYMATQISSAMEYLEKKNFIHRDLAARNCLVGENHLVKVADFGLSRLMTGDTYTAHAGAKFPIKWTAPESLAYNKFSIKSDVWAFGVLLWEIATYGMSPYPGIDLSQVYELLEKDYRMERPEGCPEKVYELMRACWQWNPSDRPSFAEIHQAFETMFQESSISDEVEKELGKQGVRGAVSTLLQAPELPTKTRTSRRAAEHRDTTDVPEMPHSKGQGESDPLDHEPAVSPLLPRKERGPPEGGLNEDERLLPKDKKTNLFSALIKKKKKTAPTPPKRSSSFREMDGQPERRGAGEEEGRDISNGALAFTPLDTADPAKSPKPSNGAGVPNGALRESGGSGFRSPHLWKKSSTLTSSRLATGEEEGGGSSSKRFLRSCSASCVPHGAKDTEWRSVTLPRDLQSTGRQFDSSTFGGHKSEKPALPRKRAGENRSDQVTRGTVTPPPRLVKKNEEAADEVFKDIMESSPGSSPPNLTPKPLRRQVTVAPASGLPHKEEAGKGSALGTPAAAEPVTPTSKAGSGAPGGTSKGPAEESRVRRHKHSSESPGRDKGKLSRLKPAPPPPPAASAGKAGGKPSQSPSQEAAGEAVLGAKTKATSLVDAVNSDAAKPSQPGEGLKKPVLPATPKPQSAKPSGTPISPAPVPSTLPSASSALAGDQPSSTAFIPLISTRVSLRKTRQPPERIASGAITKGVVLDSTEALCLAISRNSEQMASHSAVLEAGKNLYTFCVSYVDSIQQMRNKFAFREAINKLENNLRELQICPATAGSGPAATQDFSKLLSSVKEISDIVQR
Sequence of Serine/threonine-protein kinase Chk1 (O14757 whole entry, the tested form may be a part): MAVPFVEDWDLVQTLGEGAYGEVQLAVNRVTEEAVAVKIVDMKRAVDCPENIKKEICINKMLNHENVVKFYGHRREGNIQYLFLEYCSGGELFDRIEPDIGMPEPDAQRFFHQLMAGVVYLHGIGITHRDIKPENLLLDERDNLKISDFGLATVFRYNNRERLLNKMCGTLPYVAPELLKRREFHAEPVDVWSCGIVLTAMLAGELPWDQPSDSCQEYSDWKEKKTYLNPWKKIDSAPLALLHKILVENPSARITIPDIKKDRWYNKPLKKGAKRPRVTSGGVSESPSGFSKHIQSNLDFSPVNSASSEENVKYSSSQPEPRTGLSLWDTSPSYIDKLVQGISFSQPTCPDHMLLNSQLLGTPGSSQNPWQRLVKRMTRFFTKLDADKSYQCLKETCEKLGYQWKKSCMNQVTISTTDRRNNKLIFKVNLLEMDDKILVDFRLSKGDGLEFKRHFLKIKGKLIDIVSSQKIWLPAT
T1 sequence (P07333 whole entry): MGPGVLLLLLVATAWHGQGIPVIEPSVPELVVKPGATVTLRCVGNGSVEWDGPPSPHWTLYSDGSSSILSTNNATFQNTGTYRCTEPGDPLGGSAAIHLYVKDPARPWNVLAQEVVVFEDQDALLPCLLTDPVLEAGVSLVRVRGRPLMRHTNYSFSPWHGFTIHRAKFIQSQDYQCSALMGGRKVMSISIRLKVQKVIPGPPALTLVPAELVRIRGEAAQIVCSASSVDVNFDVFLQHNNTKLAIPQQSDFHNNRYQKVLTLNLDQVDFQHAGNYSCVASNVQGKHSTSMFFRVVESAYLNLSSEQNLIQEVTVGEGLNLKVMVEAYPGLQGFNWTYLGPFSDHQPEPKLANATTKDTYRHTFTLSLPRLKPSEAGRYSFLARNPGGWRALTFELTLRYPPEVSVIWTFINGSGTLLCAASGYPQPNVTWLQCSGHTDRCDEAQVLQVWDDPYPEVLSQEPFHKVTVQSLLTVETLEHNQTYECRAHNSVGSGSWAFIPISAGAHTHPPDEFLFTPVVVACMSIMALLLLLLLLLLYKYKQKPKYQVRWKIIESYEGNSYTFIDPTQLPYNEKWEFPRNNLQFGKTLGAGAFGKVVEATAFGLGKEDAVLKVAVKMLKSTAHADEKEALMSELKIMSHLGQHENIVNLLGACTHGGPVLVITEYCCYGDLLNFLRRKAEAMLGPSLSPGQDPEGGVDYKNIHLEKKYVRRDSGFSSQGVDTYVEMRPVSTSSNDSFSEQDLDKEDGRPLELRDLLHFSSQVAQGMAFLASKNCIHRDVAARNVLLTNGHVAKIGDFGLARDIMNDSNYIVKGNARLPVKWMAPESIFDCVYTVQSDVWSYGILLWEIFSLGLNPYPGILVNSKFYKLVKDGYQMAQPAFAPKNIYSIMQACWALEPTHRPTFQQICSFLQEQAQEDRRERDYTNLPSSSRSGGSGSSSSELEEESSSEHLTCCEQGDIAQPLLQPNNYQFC
Sequence of Tyrosine-protein kinase ABL1 (Homo sapiens, UniProt P00519) (P00519 whole entry, the tested form may be a part): as the sequence (P00519 whole entry F317L, the tested form may be a part) above, with L317F counted along it
Sequence of Proto-oncogene tyrosine-protein kinase Src (P12931 2-536 limits assumed): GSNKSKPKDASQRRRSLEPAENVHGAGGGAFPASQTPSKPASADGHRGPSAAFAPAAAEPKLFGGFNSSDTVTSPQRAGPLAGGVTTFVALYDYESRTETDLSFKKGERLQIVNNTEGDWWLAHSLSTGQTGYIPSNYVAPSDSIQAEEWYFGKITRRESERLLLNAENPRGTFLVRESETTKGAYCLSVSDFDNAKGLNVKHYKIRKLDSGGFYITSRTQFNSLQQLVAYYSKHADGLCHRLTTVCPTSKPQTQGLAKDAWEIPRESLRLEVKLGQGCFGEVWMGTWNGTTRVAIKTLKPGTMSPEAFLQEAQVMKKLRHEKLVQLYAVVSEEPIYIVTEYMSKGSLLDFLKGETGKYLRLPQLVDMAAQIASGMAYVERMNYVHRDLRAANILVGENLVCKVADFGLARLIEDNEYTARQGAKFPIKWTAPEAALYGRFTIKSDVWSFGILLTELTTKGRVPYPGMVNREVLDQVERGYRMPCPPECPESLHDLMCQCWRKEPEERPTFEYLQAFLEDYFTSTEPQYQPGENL
Sequence of Inhibitor of nuclear factor kappa-B kinase subunit alpha (Homo sapiens) (O15111 whole entry): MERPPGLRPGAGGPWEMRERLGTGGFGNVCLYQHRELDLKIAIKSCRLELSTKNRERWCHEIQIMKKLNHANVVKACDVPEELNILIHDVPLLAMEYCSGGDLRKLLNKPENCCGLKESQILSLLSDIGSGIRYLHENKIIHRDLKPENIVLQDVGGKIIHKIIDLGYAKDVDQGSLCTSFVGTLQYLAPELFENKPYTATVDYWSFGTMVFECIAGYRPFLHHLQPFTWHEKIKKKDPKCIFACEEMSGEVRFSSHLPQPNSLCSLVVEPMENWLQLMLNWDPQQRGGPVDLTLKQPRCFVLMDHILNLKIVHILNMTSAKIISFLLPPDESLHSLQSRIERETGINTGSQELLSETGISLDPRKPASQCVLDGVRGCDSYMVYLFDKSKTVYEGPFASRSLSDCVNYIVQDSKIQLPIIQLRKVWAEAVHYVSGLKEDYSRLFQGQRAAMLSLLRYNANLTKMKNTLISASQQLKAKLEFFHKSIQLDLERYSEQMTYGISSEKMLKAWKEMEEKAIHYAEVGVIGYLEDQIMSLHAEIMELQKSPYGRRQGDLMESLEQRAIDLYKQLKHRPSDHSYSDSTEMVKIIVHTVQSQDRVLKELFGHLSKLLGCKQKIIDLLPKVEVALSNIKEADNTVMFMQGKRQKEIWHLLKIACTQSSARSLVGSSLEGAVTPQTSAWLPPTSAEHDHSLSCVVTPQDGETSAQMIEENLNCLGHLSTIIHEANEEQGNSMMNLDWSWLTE
Sequence of Serine/threonine-protein kinase Nek2 (Homo sapiens) (P51955 whole entry): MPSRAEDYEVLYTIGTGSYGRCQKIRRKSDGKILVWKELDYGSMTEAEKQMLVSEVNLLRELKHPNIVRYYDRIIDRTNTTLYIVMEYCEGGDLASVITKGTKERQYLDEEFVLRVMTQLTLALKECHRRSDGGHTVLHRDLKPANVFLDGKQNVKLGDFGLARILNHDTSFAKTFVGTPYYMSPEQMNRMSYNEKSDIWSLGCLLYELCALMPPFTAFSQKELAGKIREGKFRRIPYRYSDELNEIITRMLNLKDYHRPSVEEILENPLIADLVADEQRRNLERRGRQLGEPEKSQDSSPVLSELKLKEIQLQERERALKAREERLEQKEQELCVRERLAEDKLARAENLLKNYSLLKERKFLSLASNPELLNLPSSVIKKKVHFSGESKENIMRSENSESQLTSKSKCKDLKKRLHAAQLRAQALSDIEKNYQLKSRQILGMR

CN1CCC(Nc2ccc(C(=O)Nc3cc(-c4cc(C#N)cs4)n[nH]3)cc2)CC1
Activity [1]: 4.66% | Activity [2]: 23% | Activity [3]: 11% | half-life at 1 µM [4]: 61.9 min | Activity [5]: 3% | inhibition of growth at 10 µM [6]: 10.2% | IC50 ([7]; read-out: IC50): > 10 µM | IC50 ([7]; read-out: pIC50 (converted)): 10 µM | half-life at 1 µM [8]: 8.1 min | IC50 [9]: 5.14 µM | Activity [10]: 101% | Activity [11]: 21.04% | microsomal CLint at 1 µM [12]: 22.4 µL/min/mg | Kd [13]: 6.9 µM | Kd [14]: 0.37 µM | Kd [15]: 0.084 µM | Activity [16]: 17.9% | Activity [17]: 15.97% | IC50 ([18]; read-out: IC50): 1.53 µM | IC50 ([18]; read-out: pIC50 (converted)): 1.58 µM | Kd [19]: 0.46 µM | Activity [20]: 74.5% | Activity [21]: 58.4% | Activity [22]: 86.5% | Activity [23]: Non-Toxic | Activity [24]: 80.7% | Activity [25]: 30.2% | inhibition of growth at 10 µM [26]: 1.3%
